ChEMBL document CHEMBL1201862, “PubChem BioAssay data set” (2004)
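Step 1: Grow cells in 96-well plates. Step 2: Expose to compound for 48 hours at 5 concentrations. Step 3: Interpolate endpoints linearly; if unreached, use highest concentration. GI50 = concentration required for 50% inhibition of growth.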 The source made the active and inactive calls. Cut-off read from the data, not from the text of the source: active = GI50 up to about 1.1 µM and inactive = higher.

Key:
Test in all cases: NCI tumour cell line growth inhibition, 48 h
TK-10 = tested on: TK-10
IGROV-1 = tested on: IGROV-1
SF-268 = tested on: SF-268
OVCAR-4 = tested on: OVCAR-4
HOP-92 = tested on: HOP-92
SK-OV-3 = tested on: SK-OV-3
LXFL 529 = tested on: LXFL 529
SK-MEL-2 = tested on: SK-MEL-2
SF-295 = tested on: SF-295
OVCAR-3 = tested on: OVCAR-3
RPMI-8226 = tested on: RPMI-8226
XF498 = tested on: XF498
HL-60 = tested on: HL-60
NCI-H226 = tested on: NCI-H226
CCRF-CEM = tested on: CCRF-CEM
MOLT-4 = tested on: MOLT-4
DMS-273 = tested on: DMS-273
RXF 393 = tested on: RXF 393
K562 = tested on: K562
HT-29 = tested on: HT-29
LOX IMVI = tested on: LOX IMVI
NCI-H23 = tested on: NCI-H23
DMS-114 = tested on: DMS-114
A549 = tested on: A549
NCI-H522 = tested on: NCI-H522
A498 = tested on: A498
ACHN = tested on: ACHN
CAKI-1 = tested on: CAKI-1
SK-MEL-28 = tested on: SK-MEL-28
Malme-3M = tested on: Malme-3M
786-0 = tested on: 786-0
OVCAR-5 = tested on: OVCAR-5
OVCAR-8 = tested on: OVCAR-8
SNB-78 = tested on: SNB-78
UACC-257 = tested on: UACC-257
M19-MEL = tested on: M19-MEL
NCI-H460 = tested on: NCI-H460
SW-620 = tested on: SW-620
HCC 2998 = tested on: HCC 2998
DLD-1 = tested on: DLD-1
EKVX = tested on: EKVX
M14 = tested on: M14
HCT-15 = tested on: HCT-15
SN12C = tested on: SN12C
UO-31 = tested on: UO-31
HOP-62 = tested on: HOP-62
SF-539 = tested on: SF-539
SNB-19 = tested on: SNB-19
KM-20L2 = tested on: KM-20L2
COLO 205 = tested on: COLO 205
UACC-62 = tested on: UACC-62
KM12 = tested on: KM12
SNB-75 = tested on: SNB-75
SK-MEL-5 = tested on: SK-MEL-5
HOP-18 = tested on: HOP-18
U-251 = tested on: U-251
SR = tested on: SR
HCT-116 = tested on: HCT-116

Measured: GI50

Cc1cc(O)nc(CNC(=O)Cc2ccccc2)n1
inactive: TK-10 > 100 µM | IGROV-1 > 100 µM | SF-268 > 100 µM | OVCAR-4 > 100 µM | HOP-92 > 100 µM | SK-OV-3 > 100 µM | LXFL 529 > 100 µM | SK-MEL-2 > 100 µM | SF-295 > 100 µM | OVCAR-3 > 100 µM | RPMI-8226 > 100 µM | XF498 > 100 µM | HL-60 > 100 µM | NCI-H226 > 100 µM | CCRF-CEM > 100 µM | MOLT-4 > 100 µM | DMS-273 > 100 µM | RXF 393 > 100 µM | K562 > 100 µM | HT-29 > 100 µM | LOX IMVI > 100 µM | NCI-H23 > 100 µM | DMS-114 > 100 µM | A549 > 100 µM | NCI-H522 > 100 µM | A498 > 100 µM | ACHN > 100 µM | CAKI-1 > 100 µM | SK-MEL-28 > 100 µM | Malme-3M > 100 µM | 786-0 > 100 µM | OVCAR-5 > 100 µM | OVCAR-8 > 100 µM | SNB-78 > 100 µM | UACC-257 > 100 µM | M19-MEL > 100 µM | NCI-H460 > 100 µM | SW-620 > 100 µM | HCC 2998 > 100 µM | DLD-1 > 100 µM | EKVX > 100 µM | M14 > 100 µM | SN12C > 100 µM | UO-31 > 100 µM | HOP-62 > 100 µM | SF-539 > 100 µM | SNB-19 > 100 µM | KM-20L2 > 100 µM | COLO 205 > 100 µM | UACC-62 > 100 µM | KM12 > 100 µM | SNB-75 > 100 µM
> 100 µM: HCT-15

CN(C)CC/C(=N\Nc1ccccc1)c1ccccc1
inactive: TK-10 14.3 µM | IGROV-1 29.4 µM | SK-MEL-5 17.7 µM | SF-268 8.13 µM | OVCAR-4 3.25 µM | HOP-92 11.1 µM | SK-OV-3 15.3 µM | HOP-18 31 µM | SK-MEL-2 9.16 µM | SF-295 2.56 µM | OVCAR-3 13.9 µM | RPMI-8226 43.7 µM | XF498 3.89 µM | MOLT-4 2.83 µM | RXF 393 31.2 µM | K562 2.48 µM | HT-29 2.13 µM | NCI-H23 23 µM | DMS-114 15.6 µM | A549 45 µM | U-251 27.4 µM | CAKI-1 3.18 µM | SK-MEL-28 > 10 µM | Malme-3M 4.78 µM | 786-0 23 µM | OVCAR-5 14.4 µM | OVCAR-8 4.35 µM | SNB-78 11.8 µM | SR 47.8 µM | M19-MEL 25.2 µM | HCC 2998 12.2 µM | HCT-116 12.2 µM | DLD-1 69.2 µM | EKVX 15.7 µM | M14 2 µM | UO-31 6.85 µM | HOP-62 13.4 µM | SF-539 15.8 µM | SNB-19 40.9 µM | COLO 205 17.6 µM | UACC-62 > 100 µM | KM12 1.57 µM
2.88 µM: HCT-15

CC(=O)c1ccc2c(ccc(=O)n2C)c1
> 100 µM: HCT-15
inactive: TK-10 > 100 µM | IGROV-1 > 100 µM | SK-MEL-5 > 100 µM | SF-268 > 100 µM | OVCAR-4 > 100 µM | HOP-92 > 100 µM | SK-OV-3 > 100 µM | LXFL 529 > 100 µM | HOP-18 > 100 µM | SK-MEL-2 > 100 µM | SF-295 > 100 µM | OVCAR-3 > 100 µM | RPMI-8226 > 100 µM | XF498 > 100 µM | HL-60 > 100 µM | NCI-H226 > 100 µM | CCRF-CEM > 100 µM | MOLT-4 > 100 µM | DMS-273 > 100 µM | K562 > 100 µM | HT-29 > 100 µM | LOX IMVI > 100 µM | NCI-H23 > 100 µM | DMS-114 > 100 µM | A549 > 100 µM | NCI-H522 56.2 µM | A498 > 100 µM | U-251 > 100 µM | CAKI-1 > 100 µM | SK-MEL-28 > 100 µM | Malme-3M > 100 µM | 786-0 > 100 µM | OVCAR-5 > 100 µM | OVCAR-8 > 100 µM | M19-MEL > 100 µM | NCI-H460 > 100 µM | SW-620 > 100 µM | HCC 2998 > 100 µM | HCT-116 > 100 µM | DLD-1 > 100 µM | EKVX > 100 µM | M14 > 100 µM | SN12C > 100 µM | HOP-62 > 100 µM | SF-539 > 100 µM | SNB-19 > 100 µM | KM-20L2 > 100 µM | COLO 205 > 100 µM | UACC-62 93.8 µM | KM12 > 100 µM | SNB-75 38.7 µM

CC1(O)CCC2(C)C(=O)C1(C)CCC21OCCO1 (stereo unspecified)
inactive: TK-10 > 100 µM | IGROV-1 > 100 µM | SK-MEL-5 > 100 µM | SF-268 > 100 µM | HOP-92 > 100 µM | SK-OV-3 > 100 µM | LXFL 529 > 100 µM | HOP-18 > 100 µM | SK-MEL-2 > 100 µM | SF-295 > 100 µM | OVCAR-3 > 100 µM | RPMI-8226 > 100 µM | XF498 > 100 µM | HL-60 > 100 µM | NCI-H226 > 100 µM | CCRF-CEM > 100 µM | MOLT-4 > 100 µM | DMS-273 > 100 µM | RXF 393 > 100 µM | K562 > 100 µM | HT-29 > 100 µM | NCI-H23 > 100 µM | DMS-114 > 100 µM | A549 > 100 µM | NCI-H522 > 100 µM | ACHN > 100 µM | U-251 > 100 µM | SK-MEL-28 > 100 µM | Malme-3M > 100 µM | 786-0 > 100 µM | OVCAR-5 > 100 µM | OVCAR-8 > 100 µM | SR > 100 µM | UACC-257 > 100 µM | M19-MEL > 100 µM | NCI-H460 > 100 µM | SW-620 > 100 µM | HCC 2998 > 100 µM | DLD-1 > 100 µM | EKVX > 100 µM | M14 > 100 µM | SN12C > 100 µM | UO-31 > 100 µM | SF-539 > 100 µM | SNB-19 > 100 µM | COLO 205 > 100 µM | KM12 > 100 µM
> 100 µM: HCT-15
